The structures appear in SMILES notation.

The source of these data is patent publication US20040248909A1, “Adenosine a1 receptor antagonist for treating hypoxia-induced learning memory impairment” (priority 2001, published 2004).

Experiment [1] relates to CA1 pyramidal cells. Briefly: Sch-CA1 synaptic transmission (EPSPs) in hippocampal slices during brief hypoxia (synaptic arrest). The experiment is classed as cell-based, rat. The method, then:
(§1) Brain slices and electrophysiology. Male Sprague-Dawley rats (150-200 gm) were anesthetized with pentobarbital and the brains were removed and cooled rapidly in aCSF solution, bubbled continuously with 95% O2 and 5% CO2. Hippocampi were sliced ([…]) and placed in oxygenated aCSF (NaCl, 124 mM; KCl 3; MgSO4 1.3; CaCl2 2.4; NaHCO3 26; NaH2PO4 1.25; and glucose 10). The CA1 pyramidal cells were recorded at 30-31° C. with sharp electrodes (tip resistance: 60-120 MΩ). Study was performed on CA1 neurons with stable resting membrane potential more negative than −70 mV. Unless otherwise mentioned, test stimuli were applied at frequency of 1 per minute (0.017 Hz). Signals were amplified with AxoClamo-2B amplifier, digitized and stored using DigiData 1200 with the P-Clamp data collection and analysis software (Axon Instruments, Inc.).
(§2) Hypoxia. Episodes of hypoxia were induced by replacing the oxygen supply with 95% N2/5% O2/5% CO2 for 3 min or 95% N2/5% CO2 for 100 s. […]
(§3) The period of hypoxia is known to block synaptic transmission of glutarmatergic inputs^8, GABAergic input^8,10 and cholinergic inputs ^11,12, causing disconnection, or synaptic ‘arrest’, of CA1 neuronal network^8. […] Effects of brief hypoxia on synaptic transmission and of agents on hypoxic responses were monitored on responses of CA1 pyramidal cells to Sch activation. […]

Experiment [2] relates to CA1 pyramidal cells. Briefly: Carbachol-induced cholinergic CA1 θ field potential and intracellular θ in hippocampal slices, with or without brief hypoxia. The experiment is classed as cell-based, rat. The method, then:
as §1
Hypoxia. Episodes of hypoxia were induced by replacing the oxygen supply with […] for 3 min or 95% N2/5% CO2 for 100 s. […] The hypoxia is milder than those used by others to produce an irreversible impairment of synaptic transmission^25.
Effects of brief hypoxia on functions of CA1 neurons were monitored on synaptic transmission, long-term potentiation (LTP) of glutamatergic EPSPs, and cholinergic θ, a memory-related neuronal activity synchronization that depends on a temporal heterosynaptic interaction. Bath application of carbachol (50 μM, 20 min), a cholinergic receptor agonist, to hippocampal slices mimicked septal activation and diffuse acetylcholine transmission and induced CA1 θ field potential (FIG. 1a; peak amplitude: 0.73±0.02 mV, n=10, p<0.05, at 7.4±0.7 Hz from background noise). The θ is sensitive to atropine blockade and lasted for more than 3h^7. The θ oscillation of membrane potential (7.5±1.0 mV; n=18; p<0.05) was also observed in CA1 pyramidal cells (intracellular θ; FIG. 1b). […] LTP of responses to schaffer collateral (Sch) glutamatergic inputs (FIG. 1c,e), however, was not reduced, but enhanced, by the hypoxia (FIG. 1d,e), consistent with reported hypoxic LTP^8 and the observation that LTP expression is not vulnerable to transient hypoxia a few minutes after hypoxia.

The subject of another experiment is hypoxia rats. Briefly: Hidden-platform water maze spatial learning and memory in rats subjected to brief hypoxia. The experiment is classed as in vivo, rat. Conditions: bilateral i.c.v. 400 nmoles/site. The method, then:
The figure illustrates experimental protocol (FIG. 4a), escape latency (means±SEM) in water maze training (FIG. 4b) across 12 trials (F11,312=50.14, p<0.0001), and quadrant preference (FIGS. 4c, 4d and 4e) conducted at the end of the twelfth training session, and swimming distance (in 1 min; FIG. 4f). Rats were either subjected to air or hypoxia (95% N2/5% CO2 for 100 s) about 30 min in a glass jar after the 2nd-or 4th trial of the day. Bilateral i.c.v. CPDPX (400 nmoles/site) or vehicle were administered before the 2nd and 4th trials of the day. Quadrant 4 is the target quadrant during training.
Spatial maze tasks. Male adult Wistar rats (200-250 gm) were anesthetized with sodium pentobarbital (60 mg/kg, i.p) and placed in a stereotactic apparatus (Kopf Instruments, Tujunga, Calif.). Two stainless steel guide cannulas were placed with the tips positioned at the coordinates (anterior-posterior, 0.5 mm; lateral, 1.5 mm; horizontal, 3.2 mm), under aseptic conditions. A 7-day recovery period was allowed before any further experimentation. All rats were randomly assigned to different groups (10 each) and swam for 2 min in a 1.5 m (diameter)×0.6 m (depth) pool (22±1° C.). […]
One of the most persistent consequences of transient hypoxia/ischemia is amnesia. Effects of brief hypoxia and CPDPX on spatial learning (FIG. 4a) were evaluated in rats, using a hidden-platform water maze. […]

Another experiment has as its target T1, adenosine A1 receptor (Rattus norvegicus, UniProt P25099).
T1 sequence (P25099 1-326): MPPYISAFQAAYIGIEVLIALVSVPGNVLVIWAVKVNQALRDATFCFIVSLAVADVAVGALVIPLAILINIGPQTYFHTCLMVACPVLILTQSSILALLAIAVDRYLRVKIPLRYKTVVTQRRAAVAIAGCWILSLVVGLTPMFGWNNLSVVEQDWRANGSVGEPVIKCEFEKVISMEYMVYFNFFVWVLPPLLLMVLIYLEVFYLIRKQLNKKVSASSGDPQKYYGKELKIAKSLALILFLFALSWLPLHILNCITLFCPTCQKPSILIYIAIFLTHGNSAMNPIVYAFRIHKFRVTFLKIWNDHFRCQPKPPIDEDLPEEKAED
The following applies: cited from earlier work.

The test system of experiment [3] is CA1 pyramidal cells. Briefly: Membrane response of CA1 pyramidal cells to local application of glutamate. The class given is cell-based, rat. The following applies: 20 μl of 10 mM. The method, then:
as §1, §2, §3

With `CCCn1c(=O)c2[nH]c(C3CCCC3)nc2n(CCC)c1=O` [CPDPX, 8-cyclopentyl-1,3-dipropylxanthine], in the experiment on CA1 pyramidal cells [1] (Sch-CA1 EPSPs, brief hypoxia 5% O2 3 min, 10 μM, n=7, p>0.05), the “synaptic transmission at the end of the hypoxia versus control 100%” value came to 99.2±2.4%. Also, the “effect on hypoxic synaptic arrest” value in the experiment with CA1 pyramidal cells [1] (end of 3 min hypoxia, citicoline 100 μM, 8-cyclopentyl-1,3-dipropylxanthine 10 μM) is “synaptic arrest was abolished”. In the experiment with CA1 pyramidal cells [2] (in presence of CPDPX, CA1 pyramidal cells, n=8, p>0.05), the “intracellular θ after brief hypoxia (versus pre-hypoxia)” value worked out at 99.6±3.0%. The “θ activity after brief hypoxia (versus pre-hypoxia)” value with CA1 pyramidal cells [2] (in presence of CPDPX, carbachol-induced CA1 θ, n=6, p>0.05) stood at 100.2±3.2%. Also, the “quadrant preference in quadrant test” value in the experiment on hypoxia rats (24 hrs after last training trial, F3,36=169.7, p<0.0001) is “showed a preference for the target quadrant”. Moreover, the “effect on hypoxic impairment of spatial memory (escape latency)” value with hypoxia rats (hypoxia 95% N2/5% CO2 100 s) is “eliminated hypoxic impairment on the spatial memory”. Further, the “effect on adenosine-mediation of anoxia induced synaptic glutamate release in CA1 pyramidal neurons” value on adenosine A1 receptor (Katchman et al. 1996) is listed as “not affected”. Moreover, the “effect on hypoxia-induced accumulation of adenosine” value at adenosine A1 receptor (Pearson et al. 2000) is on record as “mitigates hypoxia-induced accumulation of adenosine during hypoxia”.
On to `C[N+](C)(C)CCOC(N)=O` [carbachol], for which the “frequency of induced CA1 θ field potential” value in the experiment on CA1 pyramidal cells [2] (bath application 50 μM, 20 min) is 7.4±0.7 Hz. For the same compound, the “induced CA1 θ field potential peak amplitude” value in the experiment on CA1 pyramidal cells [2] (bath application 50 μM, 20 min, n=10) is given as 0.73±0.02 mV. For the same compound, in the experiment on CA1 pyramidal cells [2] (carbachol 50 μM, CA1 pyramidal cells, n=18), the “θ oscillation of membrane potential (intracellular θ)” value is listed as 7.5±1.0 mV.
On to `N[C@@H](CCC(=O)O)C(=O)O` [glutamate], for which, in the experiment on CA1 pyramidal cells [3] (local application before hypoxia), the “peak inward current, control value” was 206.8±9.7 pA. In the experiment on CA1 pyramidal cells [3] (local application during last few seconds of 3 min hypoxia, n=7), this compound gave a peak inward current of 201.2±10.5 pA.
